{"source": "patent US20230010886A1", "about": "(SUZHOU PUHE BIOPHARMA CO., LTD., priority 2019, published 2023)", "data": [{"molecular_target": "T1, Full length SHP2 enzyme (Homo sapiens, UniProt Q06124)", "T1 construct": "Full length SHP2 enzyme (diluted to 0.1 nM in reaction buffer)", "T1 sequence (Q06124 1-593)": "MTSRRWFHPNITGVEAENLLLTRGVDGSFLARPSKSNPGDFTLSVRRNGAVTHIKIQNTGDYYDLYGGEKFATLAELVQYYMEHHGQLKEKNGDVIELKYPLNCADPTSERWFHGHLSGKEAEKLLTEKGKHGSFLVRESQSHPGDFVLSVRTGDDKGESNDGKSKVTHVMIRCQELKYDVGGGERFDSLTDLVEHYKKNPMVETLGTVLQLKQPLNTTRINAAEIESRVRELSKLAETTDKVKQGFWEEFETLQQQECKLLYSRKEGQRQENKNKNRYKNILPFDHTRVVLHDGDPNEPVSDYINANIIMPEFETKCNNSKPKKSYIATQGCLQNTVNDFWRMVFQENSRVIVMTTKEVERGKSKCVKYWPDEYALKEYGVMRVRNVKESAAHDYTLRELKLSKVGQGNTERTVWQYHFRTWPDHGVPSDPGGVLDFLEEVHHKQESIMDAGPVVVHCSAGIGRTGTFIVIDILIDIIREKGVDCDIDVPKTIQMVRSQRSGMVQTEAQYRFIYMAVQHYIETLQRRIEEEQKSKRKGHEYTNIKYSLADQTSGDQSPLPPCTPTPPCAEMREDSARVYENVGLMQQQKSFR", "assay": "SHP2 phosphatase assay", "format": "biochemical", "conditions": "1 μM IRS-1 peptide, DiFMUP substrate", "experimental": "IC50 values were determined at room temperature in 384-well black polystyrene plate, using a final reaction volume of 15 μL and the following assay buffer conditions: 60 mM Hepes (pH=7.2), 75 mM NaCl, 75 mM KCl, and 1 mM EDTA, 0.05% P-20, 5 mM dithiothreitol (DTT). Full length SHP2 enzyme (diluted to 0.1 nM in reaction buffer) were co-incubated with 1 μM IRS-1 peptide and 0.01 nM to 10 μM compounds of the disclosure for 60 min. The surrogate substrate DiFMUP (5 μL, 100 μM) was added, and incubated at rt for 60 min. The reaction was then quenched by the addition of 5 μL of a 40 μM solution of bpV(Phen). The fluorescence signal was monitored using a microplate reader (Envision, Perkin-Elmer) using excitation and emission wavelengths of 360 nm and 450 nm, respectively. The inhibitor dose-response curves were analyzed using normalized IC50 regression curve fitting with control-based normalization.", "units": {"IC50": "nM"}, "values": [{"smiles": "CC1(CN)CCN(c2ncc(Sc3cccc(NC(=O)c4c(O)nc5[nH]ccn5c4=O)c3Cl)[nH]c2=O)CC1", "note": "[Example 32, N-(3-((5-(4-(aminomethyl)-4-methylpiperidin-1-yl)-6-oxo-1,6-dihydropyrazin-2-yl)thio)-2-chlorophenyl)-7-hydroxy-5-oxo-1,5-dihydroimidazo[1,2-a]pyrimidine-6-carboxamide]", "IC50": "≤ 50"}, {"smiles": "COc1cccc(Sc2cnc(N3CCC4(CC3)CO[C@@H](C)[C@H]4N)c(=O)[nH]2)c1Cl", "note": "[Example 79, 3-((3S,4S)-4-amino-3-methyl-2-oxa-8-azaspiro[4.5]decan-8-yl)-6-((2-chloro-3-methoxyphenyl)thio)pyrazin-2 (1H)-one]", "IC50": "≤ 50"}, {"smiles": "N[C@@H]1c2ccccc2OC12CCN(c1ncc(Sc3ccnc(Cl)c3Cl)[nH]c1=O)CC2", "note": "[Example 123, (R)-3-(3-amino-3H-spiro[benzofuran-2,4′-piperidin]-1′-yl)-6-((2,3-dichloropyridin-4-yl)thio)pyrazin-2(1H)-one]", "IC50": "≤ 50"}, {"smiles": "[2H][C@@]1(N)[C@H](C)OCC12CCN(c1ncc(Sc3cccc(Cl)c3Cl)[nH]c1=O)CC2", "note": "[Example 136]", "IC50": "≤ 50"}, {"smiles": "COc1nccc(Sc2cnc(N3CCC4(CC3)CO[C@@H](C)[C@H]4N)c(=O)[nH]2)c1Cl", "note": "[Example 80, 3-((3S,4S)-4-amino-3-methyl-2-oxa-8-azaspiro[4.5]decan-8-yl)-6-((3-chloro-2-methoxypyridin-4-yl)thio)pyrazin-2(1H)-one]", "IC50": "≤ 50"}, {"smiles": "C[C@@H]1OCC2(CCN(c3ncc(Sc4ccncc4Cl)[nH]c3=O)CC2)[C@@H]1N", "note": "[Example 128, 3-((3S,4S)-4-amino-3-methyl-2-oxa-8-azaspiro[4.5]decan-8-yl)-6-((3-chloropyridin-4-yl)thio) pyrazin-2(1H)-one]", "IC50": "≤ 50"}, {"smiles": "C[C@@H]1OCC2(CCN(c3ncc(Sc4cccc(N)c4F)[nH]c3=O)CC2)[C@@H]1N", "note": "[Example 126, 6-((3-amino-2-fluorophenyl)thio)-3-((3S,4S)-4-amino-3-methyl-2-oxa-8-azaspiro[4.5]decan-8-yl)pyrazin-2(1H)-one]", "IC50": "≤ 50"}, {"smiles": "C[C@@H]1OCC2(CCN(c3ncc(Sc4ccnc(N)c4F)[nH]c3=O)CC2)[C@@H]1N", "note": "[Example 127, 6-((2-amino-3-fluoropyridin-4-yl)thio)-3-((3S,4S)-4-amino-3-methyl-2-oxa-8-azaspiro[4.5]decan-8-yl)pyrazin-2(1H)-one]", "IC50": "≤ 1000"}, {"smiles": "C[C@@H]1OCC2(CCN(c3ncc(Sc4ccnc(N)c4Cl)nc3O)CC2)[C@@H]1N", "note": "[Example 77, 6-((2-amino-3-chloropyridin-4-yl)thio)-3-((3S,4S)-4-amino-3-methyl-2-oxa-8-azaspiro[4.5]decan-8-yl)pyrazin-2(1H)-one]", "IC50": "≤ 50"}, {"smiles": "NC1C2CC2CC12CCN(c1ncc(Sc3cccc(Cl)c3Cl)[nH]c1=O)CC2", "note": "(centres unmarked) [Example 13, 3-(2-aminospiro[bicyclo[3.1.0]hexane-3,4′-piperidin]-1′-yl)-6-((2,3-dichlorophenyl)thio)pyrazin-2 (1H)-one]", "IC50": "≤ 50"}, {"smiles": "Nc1nccc(Sc2cnc(N3CCC4(CCC[C@@H]4N)CC3)c(=O)[nH]2)c1Cl", "note": "[Example 133, (S)-6-((2-amino-3-chloropyridin-4-yl)thio)-3-(1-amino-8-azaspiro[4.5]decan-8-yl)pyrazin-2(1H)-one]", "IC50": "≤ 50"}, {"smiles": "N[C@@H]1c2ccccc2CC12CCN(c1ncc(Sc3cccc(Cl)c3Cl)[nH]c1=O)CC2", "note": "[Example 108]", "IC50": "≤ 50"}, {"smiles": "N[C@@H]1c2cccnc2CC12CCN(c1ncc(Sc3cccc(Cl)c3Cl)[nH]c1=O)CC2", "note": "[Example 134, (S)-3-(5-amino-5,7-dihydrospiro[cyclopenta[b]pyridine-6,4′-piperidin]-1′-yl)-6-((2,3-dichlorophenyl)thio)pyrazin-2(1H)-one]", "IC50": "≤ 50"}, {"smiles": "N[C@H]1CCCC12CCN(c1ncc(Sc3ccnc(Cl)c3Cl)[nH]c1=O)CC2", "note": "[Example 135, (S)-3-(1-amino-8-azaspiro[4.5]decan-8-yl)-6-((2,3-dichloropyridin-4-yl)thio)pyrazin-2(1H)-one]", "IC50": "≤ 50"}, {"smiles": "Nc1nccc(Sc2cnc(N3CCC4(CC3)Cc3sc(Cl)nc3C4N)c(=O)[nH]2)c1Cl", "note": "(centres unmarked) [Example 117, 3-(4-amino-2-chloro-4,6-dihydrospiro[cyclopenta[d]thiazole-5,4′-piperidin]-1′-yl)-6-((2-amino-3-chloropyridin-4-yl)thio)pyrazin-2(1H)-one]", "IC50": "≤ 50"}, {"smiles": "N[C@@H]1COCC12CCN(c1ncc(Sc3ccnc(Cl)c3Cl)[nH]c1=O)CC2", "note": "[Example 88, (S)-3-(4-amino-2-oxa-8-azaspiro[4.5]decan-8-yl)-6-((2,3-dichloropyridin-4-yl)thio)pyrazin-2(1H)-one]", "IC50": "≤ 50"}, {"smiles": "C[C@@H]1OCC2(CCN(c3ncc(Sc4cc[nH]c(=O)c4Cl)[nH]c3=O)CC2)[C@@H]1N", "note": "[Example 107, 3-((3S,4S)-4-amino-3-methyl-2-oxa-8-azaspiro[4.5]decan-8-yl)-6-((3-chloro-2-oxo-1,2-dihydro-pyridin-4-yl)thio)pyrazin-2(1H)-one]", "IC50": "≤ 50"}, {"smiles": "CC1(CN)CCN(c2nc3[nH]nc(Oc4cccc(Cl)c4Cl)c3c(=O)[nH]2)CC1", "note": "[Example 35, 6-(4-(aminomethyl)-4-methylpiperidin-1-yl)-3-(2,3-dichlorophenoxy)-1,5-dihydro-4H-pyrazolo[3,4-d]pyrimidin-4-one]", "IC50": "≤ 50"}, {"smiles": "CC1(CN)CCN(c2nc3[nH]nc(Nc4cccc(Cl)c4Cl)c3c(=O)[nH]2)CC1", "note": "[Example 34, 6-(4-(aminomethyl)-4-methylpiperidin-1-yl)-3-((2,3-dichlorophenyl)amino)-1,5-dihydro-4H-pyrazolo[3,4-d]pyrimidin-4-one]", "IC50": "≤ 50"}, {"smiles": "NC1CCCC(n2ccc(-c3cccc(Cl)c3Cl)cc2=O)C1", "note": "(centres unmarked) [Example 74, 1-(3-aminocyclohexyl)-4-(2,3-dichlorophenyl)pyridin-2(1H)-one]", "IC50": "≤ 50"}, {"smiles": "NC1C2CN(c3ncc(Sc4cccc(Cl)c4Cl)[nH]c3=O)CC12", "note": "(centres unmarked) [Example 86, 3-(6-amino-3-azabicyclo[3.1.0]hexan-3-yl)-6-((2,3-dichlorophenyl)thio)pyrazin-2(1H)-one]", "IC50": "≤ 50"}, {"smiles": "COc1ccc2c(c1)CC1(CCN(c3ncc(Sc4cccc(Cl)c4Cl)[nH]c3=O)CC1)[C@@H]2N", "note": "[Example 131, (S)-3-(1-amino-5-methoxy-1,3-dihydrospiro[indene-2,4′-piperidin]-1′-yl)-6-((2,3-dichlorophenyl)thio)pyrazin-2 (1H)-one]", "IC50": "≤ 50"}, {"smiles": "N[C@@H]1c2ccccc2OC12CCN(c1ncc(Sc3cccc(Cl)c3Cl)[nH]c1=O)CC2", "note": "[Example 87, (R)-3-(3-amino-3H-spiro[benzofuran-2,4′-piperidin]-1′-yl)-6-((2,3-dichlorophenyl)thio)pyrazin-2 (1H)-one]", "IC50": "≤ 50"}, {"smiles": "Cn1c(N2CCC(C)(CN)C2)nc(N)c(Sc2cccc(Cl)c2Cl)c1=O", "note": "(centres unmarked) [Example 52, 6-amino-2-(3-(aminomethyl)-3-methylpyrrolidin-1-yl)-5-((2,3-dichlorophenyl)thio)-3-methylpyrimidin-4(3H)-one]", "IC50": "≤ 50"}, {"smiles": "NC1c2nc(Cl)sc2CC12CCN(c1ncc(Sc3ccnc(Cl)c3Cl)[nH]c1=O)CC2", "note": "(centres unmarked) [Example 116, 3-(4-amino-2-chloro-4,6-dihydrospiro[cyclopenta[d]thiazole-5,4′-piperidin]-1′-yl)-6-((2,3-dichloropyridin-4-yl)thio)pyrazin-2(1H)-one]", "IC50": "≤ 50"}, {"smiles": "Nc1nccc(Sc2cnc(N3CCC4(CC3)Cc3scnc3C4N)c(=O)[nH]2)c1Cl", "note": "(centres unmarked) [Example 130, 6-((2-amino-3-chloropyridin-4-yl)thio)-3-(4-amino-4,6-dihydrospiro[cyclopenta[d]thiazole-5,4′-piperidin]-1′-yl)pyrazin-2(1H)-one]", "IC50": "≤ 50"}, {"smiles": "N[C@@H]1c2ccccc2NC12CCN(c1ncc(Sc3cccc(Cl)c3Cl)[nH]c1=O)CC2", "note": "[Example 132, (R)-3-(3-aminospiro[indoline-2,4′-piperidin]-1′-yl)-6-((2,3-dichlorophenyl)thio)pyrazin-2 (1H)-one]", "IC50": "≤ 50"}, {"smiles": "CN1C(=O)C(C(=O)Nc2cccc(Sc3cnc(N4CCC(C)(CN)CC4)c(=O)[nH]3)c2Cl)=C(O)C1(C)C", "note": "[Example 28, N-(3-((5-(4-(aminomethyl)-4-methylpiperidin-1-yl)-6-oxo-1,6-dihydropyrazin-2-yl)thio)-2-chlorophenyl)-4-hydroxy-1,5,5-trimethyl-2-oxo-2,5-dihydro-1H-pyrrole-3-carboxamide]", "IC50": "≤ 50"}, {"smiles": "Nc1nccc(Sc2cnc(N3CCC4(CC3)Oc3ccccc3[C@H]4N)c(=O)[nH]2)c1Cl", "note": "[Example 124, (R)-6-((2-amino-3-chloropyridin-4-yl)thio)-3-(3-amino-3H-spiro[benzofuran-2,4′-piperidin]-1′-yl)pyrazin-2(1H)-one]", "IC50": "≤ 50"}]}]}
